Reference: patent US6048865A, “N^6 -substituted-adenosine-5'-uronamides as adenosine receptor modulator” (priority 1998, dated 2000)
“Also recorded” adds a separate entry of the source. Like-named read-outs stand apart in the source and are kept apart here.

What was measured:
[1] = target: T1, rat A3 adenosine receptor (Rattus norvegicus, UniProt P28647);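 also: radioligand binding on membrane homogenates, 1 h incubation at 37 °C in duplicate, gamma counting of filter-bound radioactivity, nonspecific binding defined using 200 µM NECA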
T1 sequence (P28647 1-320): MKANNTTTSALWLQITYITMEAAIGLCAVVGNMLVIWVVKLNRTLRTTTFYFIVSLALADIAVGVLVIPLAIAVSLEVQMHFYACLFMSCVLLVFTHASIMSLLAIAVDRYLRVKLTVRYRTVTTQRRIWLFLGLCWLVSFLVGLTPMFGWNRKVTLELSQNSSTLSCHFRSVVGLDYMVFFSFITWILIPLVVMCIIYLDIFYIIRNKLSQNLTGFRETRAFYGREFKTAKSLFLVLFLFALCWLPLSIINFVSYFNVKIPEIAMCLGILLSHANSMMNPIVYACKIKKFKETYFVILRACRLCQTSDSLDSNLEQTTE
Method: (§1) Procedures for preparing rat brain membranes and Chinese hamster ovary (CHO) cell membranes were as reported^30, 38, 44. For binding experients, membrane homogenates were frozen and stored at -20° C. for greater than 2 months. Adenosine deaminase (ADA) was purchased from Boehringer Mannheim (Indianapolis, Ind.).
(§2) Inhibitors were routinely dissolved in DMSO. […] Incubations were carried out in duplicate for 1 h at 37° C., and were terminated by rapid filtration over Whatman GF/B filters using a Brandell cell harvester (Brandell, Gaithersburg, Md.). Tubes were washed three times with 3 mL of buffer. Radioactivity was determined in a Beckman gamma 5500B γ-counter.
(§3) Nonspecific binding was determined in the presence of 200 μM NECA. […] Additional deaminase was not added during incubation with the radioligand.

[2] = target: T2, rat brain A2A adenosine receptor (Rattus norvegicus, UniProt P30543); test: Displacement of specific [3H]CGS 21680 binding in rat striatal membranes
T2 construct: A2A receptors for rat striatal membranes; from tissue; host or cells: rat striatal membranes
T2 sequence (P30543 whole entry): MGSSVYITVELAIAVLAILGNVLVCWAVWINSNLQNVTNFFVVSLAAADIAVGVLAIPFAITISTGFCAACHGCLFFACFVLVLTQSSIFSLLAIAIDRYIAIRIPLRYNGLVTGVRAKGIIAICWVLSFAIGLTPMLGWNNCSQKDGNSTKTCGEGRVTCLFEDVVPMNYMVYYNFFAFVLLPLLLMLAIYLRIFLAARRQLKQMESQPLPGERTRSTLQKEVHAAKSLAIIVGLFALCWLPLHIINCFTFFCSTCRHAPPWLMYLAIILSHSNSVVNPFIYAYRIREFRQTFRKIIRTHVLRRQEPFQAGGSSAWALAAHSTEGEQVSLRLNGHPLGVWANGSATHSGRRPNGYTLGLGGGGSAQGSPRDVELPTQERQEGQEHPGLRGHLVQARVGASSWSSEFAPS
Method: For binding experients, membrane homogenates were frozen and stored at -20° C. for greater than 2 months. Adenosine deaminase (ADA) was purchased from Boehringer Mannheim (Indianapolis, Ind.).
as §3

[3] = target: T3, rat brain A1 adenosine receptor (Rattus norvegicus, UniProt P25099)
T3 sequence (P25099 1-326): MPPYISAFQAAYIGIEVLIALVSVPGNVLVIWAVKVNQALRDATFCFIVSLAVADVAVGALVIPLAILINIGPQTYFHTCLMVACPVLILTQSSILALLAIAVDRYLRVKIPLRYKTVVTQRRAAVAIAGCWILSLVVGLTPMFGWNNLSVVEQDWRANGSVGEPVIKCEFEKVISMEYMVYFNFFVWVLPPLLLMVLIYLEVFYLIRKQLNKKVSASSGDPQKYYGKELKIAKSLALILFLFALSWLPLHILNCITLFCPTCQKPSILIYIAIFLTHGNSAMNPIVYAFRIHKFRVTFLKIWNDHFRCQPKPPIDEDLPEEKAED
Method: (§4) Procedures for preparing rat brain membranes and Chinese hamster ovary (CHO) cell membranes were as reported^30, 38, 44. For binding experients, membrane homogenates were frozen and stored at -20° C. for greater than 2 months.
as §3

[4] = target: T1, rat A3 adenosine receptor; conditions: for A1/A3: ratio of Ki (A1) to Ki (A3); for A1/A3 / A2A/A3: rat; for A2A/A3: ratio of Ki (A2A) to Ki (A3); for affinity and selectivity at A3 adenosine receptors: vs. A1 and A2 receptors
Method: as §1, §2, §3

[5] = target: T3, rat brain A1 adenosine receptor; test: Displacement of specific [3H]R-PIA binding in rat brain (cortical) membranes; conditions: read-out: Ki (A1)
Method: as §4, §3

[6] = target: T4, rat A3 receptor (Rattus norvegicus, UniProt P28647); test: Binding of [35S]GTP-γ-S to rat RBL-2H3 mast cell membranes; format: biochemical; conditions: for effect on binding of [35S]GTP-γ-S: FIG. 1, rat RBL-2H3 mast cell membranes
T4 sequence (P28647 1-320): T1 sequence (P28647 1-320)
Method: The binding for [^35 S]GTP-y-S (Ameersham, Chicago Ill., specific activity 1275 Ci/mmol) was carried out using rat RBL-2H3 mast cell membranes by the general method of Lorenzen et al.^47 Membranes were suspended in a buffer containing 50 mM Tris, 3 units/mL adenosine deaminase, 100 mM NaCl, and 10 mM MgCl2 (pH 7.4) and a protein concentration of 1 to 10 μg per tube. The membrane suspension was preincubated with […], R-PIA and/or riboflavin in a final volume of 125 μL buffer at 30° C. for 60 min and then transferred to ice for 20 min. [^35 S]GTP-γy-S was added to a final concentration of 0.1 nM in a total volume of 500 μL and the mixture was incubated for 30 min at 30° C. Non-specific binding was determined in the presence of 10 μM GTP-γ-S (Sigma, St. Louis Mo.). Incubation of the reaction mixture was terminated by filtration over a GF/B glass filter using a Brandell cell harvester and washed with the same buffer.
The assay involved the agonist-induced inhibition of binding of guanine nucleotide to rat RBL-2H3 mast cell membranes, which contain a high density of A3 receptors.

[7] = target: T3, rat brain A1 adenosine receptor; test: biochemical
Method: as §4, §3

[8] = target: T5, human A3 adenosine receptor (Homo sapiens, UniProt P0DMS8); test: Binding of [125I]-AB-MECA to HEK-293 cells stably expressing the human A3 receptor; conditions: read-out: affinity at human A3 adenosine receptors
T5 construct: expressed in transfected cells; host or cells: HEK-293 cells
T5 sequence (P0DMS8 1-318): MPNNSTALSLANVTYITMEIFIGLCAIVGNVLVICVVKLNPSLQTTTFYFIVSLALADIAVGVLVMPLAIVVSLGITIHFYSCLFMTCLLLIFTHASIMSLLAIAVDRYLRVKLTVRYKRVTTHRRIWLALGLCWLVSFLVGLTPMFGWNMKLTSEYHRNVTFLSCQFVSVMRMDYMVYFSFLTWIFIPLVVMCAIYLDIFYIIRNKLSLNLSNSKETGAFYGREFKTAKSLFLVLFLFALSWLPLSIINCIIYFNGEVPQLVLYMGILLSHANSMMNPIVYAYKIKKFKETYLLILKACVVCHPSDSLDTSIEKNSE
Source text: Inhibitors were routinely dissolved in DMSO.

[9] = system: A3 receptor; conditions: background, cited from earlier work
[10] = rat striatal membranes, [3H]CGS 21680, Ki ± SEM, n = 3-6

| Structure (SMILES) | Ki [1] [nM] | Ki [2, 10] [nM] | Ki [3] [nM] | A1/A3 [4] | A2A/A3 [4] | further results |
| --- | --- | --- | --- | --- | --- | --- |
| CCNC(=O)[C@H]1O[C@@H](n2cnc3c(NNC(=O)c4ccc(Cl)cc4)ncnc32)[C@H](O)[C@@H]1O [Compound 3d, N^6-(4-chlorophenyl-carbonylamino)-adenosine-5'-N-ethyluronamide] | – | – | – | 1.55 | 2.59 | Ki [2]: 1960 ± 300 nM; Ki [5]: 1170 ± 220 nM; Ki ([4]; read-out: Ki (A3)): 754 ± 132 nM |
| CNC(=O)[C@H]1O[C@@H](n2cnc3c(NCc4ccc(N)c(I)c4)ncnc32)[C@H](O)[C@@H]1O [I-AB-MECA, N^6-(4-amino-3-iodobenzyl)adenosine-5'-N-methyluronamide, reference compound] | – | – | – | – | – | effect on binding of [35S]GTP-γ-S [6]: increased binding of [^35 S]GTP-γ-S in a dose dependent manner |
| CCNC(=O)[C@H]1O[C@@H](n2cnc3c(N(C(=O)Nc4ccc(Cl)cn4)C(=O)Nc4ccc(Cl)cn4)ncnc32)[C@H](O)[C@@H]1O [Compound 3o, N^6-bis-(5-chloro-pyridin-2-yl-carbamoyl)-adenosine-5'-N-ethyluronamide] | 5700 ± 100 | 799 ± 191 | 761 ± 187 | 0.13 | 0.14 | – |
| CNC(=O)[C@H]1O[C@@H](n2cnc3c(NCc4cccc(I)c4)nc(Cl)nc32)[C@H](O)[C@@H]1O [Cl-IB-MECA, 2-chloro-N^6-(3-iodobenzyl)adenosine-5'-N-methyluronamide, reference compound] | – | – | – | – | – | effect on binding of [35S]GTP-γ-S [6]: increased binding of [^35 S]GTP-γ-S in a dose dependent manner |
| CCNC(=O)[C@H]1O[C@@H](n2cnc3c(N(C(=O)Nc4ccc([N+](=O)[O-])cc4)C(=O)Nc4ccc([N+](=O)[O-])cc4)ncnc32)[C@H](O)[C@@H]1O [Compound 3n, N^6-bis-(4-nitrophenylcarbamoyl)-adenosine-5'-N-ethyluronamide] | – | 2530 ± 200 | – | – | – | Ki [5]: 89.1 ± 8.8 nM |
| CCNC(=O)[C@H]1O[C@@H](n2cnc3c(NC(=O)c4ccc(OC)cc4)ncnc32)[C@H](O)[C@@H]1O [Compound 3c] | 837 ± 142 | 237 ± 46 | 86.4 ± 14.2 | 0.10 | 0.28 | – |
| CCNC(=O)[C@H]1O[C@@H](n2cnc3c(NC(=O)Nc4nncs4)ncnc32)[C@H](O)[C@@H]1O [Compound 3l, N^6-(1,3,4-thiadiazol-2-yl-carbamoyl)-adenosine-5'-N-ethyluronamide] | 5550 ± 2800 | 917 ± 254 | 208 ± 42 | 0.037 | 0.16 | – |
| CNC(=O)[C@H]1O[C@@H](n2cnc3c(NCc4cccc(I)c4)ncnc32)[C@H](O)[C@@H]1O [IB-MECA, N^6-(3-iodobenzyl)adenosine-5'-N-methyluronamide] | – | – | – | – | – | behavioral effect [9]: induces behavioral depression; protection against cerebral ischemia ([9]; chronic administration): protects against cerebral ischemia |
| CCNC(=O)[C@H]1O[C@@H](n2cnc3c(NC(=O)c4ccc(-c5ccccc5)cc4)ncnc32)[C@H](O)[C@@H]1O [Compound 3a] | 979 ± 22 | 3580 ± 850 | 5.92 ± 1.04 | 0.006 | 3.65 | – |

Now from value to molecule, other results behind:

| Ki [1] [nM] | Ki [2, 10] [nM] | Ki [3] [nM] | A1/A3 [4] | A2A/A3 [4] | Structure (SMILES) | further results |
| --- | --- | --- | --- | --- | --- | --- |
| 532 ± 240 | 884 ± 232 | 146 ± 39 | 0.27 | 1.66 | CCNC(=O)[C@H]1O[C@@H](n2cnc3c(NC(=O)Nc4cc(C)on4)ncnc32)[C@H](O)[C@@H]1O [Compound 3k, N^6-(5-methyl-isoxazol-3-yl-carbamoyl)-adenosine-5'-N-ethyluronamide] | – |
| 107 ± 34 | – | – | 2.3 | 2.4 | CCCOc1ccc(NC(=O)Nc2ncnc3c2ncn3[C@@H]2O[C@H](C(=O)NCC)[C@@H](O)[C@H]2O)cc1 [Compound 3m, N^6-(4-n-propoxy-phenylcarbamoyl)-adenosine-5'-N-ethyluronamide] | Ki [7]: 257 ± 43 nM; Ki [4]: 9.7 to 107 nM; affinity and selectivity at A3 adenosine receptors [4]: relatively high affinity and selectivity at A3 adenosine receptors |
| 9.73 ± 0.75 | 1180 ± 360 | 453 ± 141 | 46.5 | 121.2 | CCNC(=O)[C@H]1O[C@@H](n2cnc3c(NC(=O)Nc4ccc(S(N)(=O)=O)cc4)ncnc32)[C@H](O)[C@@H]1O [Compound 3g, N^6-(4-sulfonamido-phenylcarbamoyl)-adenosine-5'-N-ethyluronamide] | Ki [8]: 56.1 ± 9.1 nM; effect on binding of [35S]GTP-γ-S [6]: about as effective as the potent A3 agonists I-AB-MECA and Cl-IB-MECA; also recorded: greater potency than NECA; also recorded: increased binding of [^35 S]GTP-γ-S in a dose dependent manner; agonism at rat A3 receptor ([6]; functional assay, rat RBL-2H3 mast cell membranes): full agonist; Ki [4]: 9.7 to 107 nM; Ki ([4]; read-out: affinity at A3 receptors, rat A3, running text): 9.7 nM |
| 38.3 ± 6.4 | 1790 ± 230 | 171 ± 15 | 4.46 | 46.8 | CCNC(=O)[C@H]1O[C@@H](n2cnc3c(NC(=O)NCc4ccccc4)ncnc32)[C@H](O)[C@@H]1O [Compound 3f, N^6-(benzylcarbamoylamino)-adenosine-5'-N-ethyluronamide] | – |
| 824 ± 126 | 670 ± 211 | 252 ± 52 | 0.30 | 0.81 | CCNC(=O)[C@H]1O[C@@H](n2cnc3c(NC(=O)c4ccccc4)ncnc32)[C@H](O)[C@@H]1O [Compound 3e] | – |
| 16.3 ± 3.7 | 279 ± 171 | 433 ± 171 | 26.5 | 17.1 | CCNC(=O)[C@H]1O[C@@H](n2cnc3c(NC(=O)N[C@H](C)c4ccccc4)ncnc32)[C@H](O)[C@@H]1O [Compound 3i, N^6-((R)-α-phenylethylcarbamoyl)-adenosine-5'-N-ethyluronamide] | – |
| 167 ± 7 | – | 16 ± 3.3 | 0.095 | 0.16 | CCNC(=O)[C@H]1O[C@@H](n2cnc3c(NC(=O)Cc4ccc(Cl)cc4Cl)ncnc32)[C@H](O)[C@@H]1O [Compound 3b, N^6-(2,4-dichlorobenzyl-carbonylamino)-adenosine-5'-N-ethyluronamide] | Ki [2]: 26.6 ± 8.8 nM |
| 319 ± 134 | 2970 ± 930 | 537 ± 33 | 1.68 | 9.3 | CCNC(=O)[C@H]1O[C@@H](n2cnc3c(NC(=O)N[C@@H](C)c4ccccc4)ncnc32)[C@H](O)[C@@H]1O [Compound 3j, N^6-((S)-α-phenylethylcarbamoyl)-adenosine-5'-N-ethyluronamide] | affinity and selectivity at A3 adenosine receptors [4]: relatively high affinity and selectivity at A3 adenosine receptors |
| 20.9 ± 7.51 | 1050 ± 270 | 72.7 ± 11.8 | 3.47 | 50.2 | CCNC(=O)[C@H]1O[C@@H](n2cnc3c(NC(=O)Nc4ccc(C(C)=O)cc4)ncnc32)[C@H](O)[C@@H]1O [Compound 3h, N^6-(4-acetyl-phenylcarbamoyl)-adenosine-5'-N-ethyluronamide] | Ki [4]: 9.7 to 107 nM; affinity and selectivity at A3 adenosine receptors [4]: relatively high affinity and selectivity at A3 adenosine receptors |
